Here are results for two molecules from patent US8673886B2, “Use of nifuratel to treat infections caused by Atopobium species” (Polichem SA, priority 2009, dated 2014).

For this test, the system named is Atopobium vaginae. Nature of the test: MIC determination on Brucella agar, susceptibility of Atopobium vaginae strains. It is filed as cell-based. Particulars: for MIC: Fannyhessea vaginae.
[1] abbreviates: all tested strains of Atopobium vaginae.

Converted amounts (≈) assume the structure as drawn. Like-named read-outs stand apart in the source and are kept apart here.

Regarding `Cc1ncc([N+](=O)[O-])n1CCO` [Metronidazole, metronidazole], the MIC – broadly, the smallest concentration in the dilution series that meets the test's criterion for growth inhibition – (CCUG43049, Atopobium vaginae strain CCUG 43049, Brucella agar, anaerobic, read-out: MIC) came out at 16 µg/mL (≈ 93.5 µM); the MIC (CCUG44061, Atopobium vaginae strain CCUG 44061, Brucella agar, anaerobic, read-out: MIC) stood at 64 µg/mL (≈ 374 µM); the MIC (CCUG44116, Atopobium vaginae strain CCUG 44116, Brucella agar, anaerobic, read-out: MIC) was 32 µg/mL (≈ 187 µM); the MIC (CCUG44125, Atopobium vaginae strain CCUG 44125, Brucella agar, anaerobic, read-out: MIC) is 16 µg/mL (≈ 93.5 µM); the MIC (CCUG44156, Atopobium vaginae strain CCUG 44156, Brucella agar, anaerobic, read-out: MIC) amounted to 8 µg/mL (≈ 46.7 µM); the MIC (CCUG44258, Atopobium vaginae strain CCUG 44258, Brucella agar, anaerobic, read-out: MIC) was 32 µg/mL (≈ 187 µM). Moreover, where the note is “CCUG48515, Atopobium vaginae strain CCUG 48515, Brucella agar, anaerobic, read-out: MIC”, the MIC came to 32 µg/mL (≈ 187 µM). Further, the “MICs (range over all strains)” value under setting [1] lay within 8 to 256 µg/mL. Also, under setting [1], the “susceptibility of Atopobium to the agent (conclusion from MIC)” value is “resistant”.

With `CSCC1CN(/N=C/c2ccc([N+](=O)[O-])o2)C(=O)O1` (stereo not shown) [Nifuratel, nifuratel], the MIC was found to be 1 µg/mL (≈ 3.51 µM). Moreover, the MIC (CCUG42099) is 0.5 µg/mL (≈ 1.75 µM). For the same molecule, for the setting “CCUG43049”, the MIC came to 0.25 µg/mL (≈ 0.876 µM). Also, the MIC (CCUG44061) was found to be 1 µg/mL (≈ 3.51 µM). The MIC (CCUG44116) came out at 0.5 µg/mL (≈ 1.75 µM). The same molecule showed an MIC (CCUG44125) of 0.25 µg/mL (≈ 0.876 µM). For the same molecule, the MIC (CCUG44156) was 0.125 µg/mL (≈ 0.438 µM). For the setting “CCUG44258”, this molecule came in with an MIC of 0.5 µg/mL (≈ 1.75 µM). For the setting “CCUG48515”, this molecule displayed an MIC of 0.5 µg/mL (≈ 1.75 µM). Under setting [1], the “susceptibility of Atopobium to the agent (conclusion from MIC)” value was “sensitive”.
